Results published in article PMC9126795 (eBioMedicine, 2022).
Like-named read-outs stand apart in the source and are kept apart here.

System: patients with HCV and HBV liver cirrhosis
Assay type: in vivo, human
[1] = Phase 1 380 mg/m^2/4h (n = 6), Grade 3
[2] = Phase 2a 280 mg/m^2/4h, Phase 1/ 2a (n = 3), Grade 1-2
[3] = Phase 2a 280 mg/m^2/4h, Phase 1/ 2a (n = 3), Grade 3
[4] = Phase 2a 280 mg/m^2/4h, Phase 2a only (n = 12), Grade 1-2
[5] = Phase 2a 280 mg/m^2/4h, Phase 2a only (n = 12), Grade 3

PRI-724
AE: Diarrhea [1]: 0
AE: Dyspepsia [1]: 0
AE: Erythema [1]: 0
AE: Headache [1]: 0
AE: Hepatic function abnormal [1]: 1 (17%)
AE: Hypertension [1]: 0
AE: Hyperuricaemia [1]: 0
AE: Insomnia [1]: 0
AE: Muscle spasms [1]: 0
AE: Nasopharyngitis [1]: 0
AE: Nausea [1]: 0
AE: Pruritus [1]: 0
AE: Puncture site pain [1]: 0
AE: Pyrexia [1]: 0
AE: Spontaneous bacterial peritonitis [1]: 0
AE: Viral infection [1]: 1 (17%)
AE: Vomiting [1]: 0
Laboratory abnormality: Alanine aminotransferase increased [1]: 0
Laboratory abnormality: Aspartate aminotransferase increased [1]: 0
Laboratory abnormality: Blood creatine phosphokinase increased [1]: 0
Laboratory abnormality: Blood creatinine increased [1]: 0
Laboratory abnormality: C-reactive protein increased [1]: 0
SAE: Anaemia [1]: 0
SAE: Hepatic function abnormal [1]: 1 (17%)
SAE: Spontaneous bacterial peritonitis [1]: 0
SAE: Viral infection [1]: 1 (17%)
Serious adverse events (SAEs) observed (Phase 1/2a, 27 patients): four SAEs among three (one from phase 1 and two from phase 2a) of the 27 patients
AE: Anaemia [2]: 0
AE: Ascites [2]: 0
AE: Decreased appetite [2]: 1 (33%)
AE: Diarrhea [2]: 1 (33%)
AE: Dyspepsia [2]: 0
AE: Erythema [2]: 0
AE: Headache [2]: 0
AE: Hepatic function abnormal [2]: 0
AE: Hypertension [2]: 1 (33%)
AE: Hyperuricaemia [2]: 0
AE: Insomnia [2]: 1 (33%)
AE: Muscle spasms [2]: 0
AE: Nasopharyngitis [2]: 0
AE: Nausea [2]: 1 (33%)
AE: Pruritus [2]: 0
AE: Puncture site pain [2]: 1 (33%)
AE: Pyrexia [2]: 0
AE: Spontaneous bacterial peritonitis [2]: 0
AE: Viral infection [2]: 0
AE: Vomiting [2]: 1 (33%)
Laboratory abnormality: Alanine aminotransferase increased [2]: 0
Laboratory abnormality: Aspartate aminotransferase increased [2]: 0
Laboratory abnormality: Blood creatine phosphokinase increased [2]: 0
Laboratory abnormality: Blood creatinine increased [2]: 0
Laboratory abnormality: C-reactive protein increased [2]: 0
SAE: Anaemia [2]: 0
SAE: Hepatic function abnormal [2]: 0
SAE: Spontaneous bacterial peritonitis [2]: 0
SAE: Viral infection [2]: 0
AE: Anaemia [3]: 0
AE: Ascites [3]: 0
AE: Decreased appetite [3]: 0
AE: Diarrhea [3]: 0
AE: Dyspepsia [3]: 0
AE: Erythema [3]: 0
AE: Headache [3]: 0
AE: Hepatic function abnormal [3]: 0
AE: Hypertension [3]: 0
AE: Hyperuricaemia [3]: 0
AE: Insomnia [3]: 0
AE: Muscle spasms [3]: 0
AE: Nasopharyngitis [3]: 0
AE: Nausea [3]: 0
AE: Pruritus [3]: 0
AE: Puncture site pain [3]: 0
AE: Pyrexia [3]: 0
AE: Spontaneous bacterial peritonitis [3]: 0
AE: Viral infection [3]: 0
AE: Vomiting [3]: 0
Laboratory abnormality: Alanine aminotransferase increased [3]: 0
Laboratory abnormality: Aspartate aminotransferase increased [3]: 0
Laboratory abnormality: Blood creatine phosphokinase increased [3]: 0
Laboratory abnormality: Blood creatinine increased [3]: 0
Laboratory abnormality: C-reactive protein increased [3]: 0
SAE: Anaemia [3]: 0
SAE: Hepatic function abnormal [3]: 0
SAE: Spontaneous bacterial peritonitis [3]: 0
SAE: Viral infection [3]: 0
AE: Anaemia [4]: 0
AE: Ascites [4]: 0
AE: Decreased appetite [4]: 3 (25%)
AE: Diarrhea [4]: 2 (17%)
AE: Dyspepsia [4]: 0
AE: Erythema [4]: 2 (17%)
AE: Headache [4]: 1 (8%)
AE: Hepatic function abnormal [4]: 1 (8%)
AE: Hypertension [4]: 0
AE: Hyperuricaemia [4]: 1 (8%)
AE: Insomnia [4]: 0
AE: Muscle spasms [4]: 0
AE: Nasopharyngitis [4]: 1 (8%)
AE: Nausea [4]: 2 (17%)
AE: Pruritus [4]: 2 (17%)
AE: Puncture site pain [4]: 0
AE: Pyrexia [4]: 0
AE: Spontaneous bacterial peritonitis [4]: 0
AE: Viral infection [4]: 0
AE: Vomiting [4]: 1 (8%)
Laboratory abnormality: Alanine aminotransferase increased [4]: 2 (17%)
Laboratory abnormality: Aspartate aminotransferase increased [4]: 3 (25%)
Laboratory abnormality: Blood creatine phosphokinase increased [4]: 0
Laboratory abnormality: Blood creatinine increased [4]: 1 (8%)
Laboratory abnormality: C-reactive protein increased [4]: 0
SAE: Anaemia [4]: 0
SAE: Hepatic function abnormal [4]: 0
SAE: Spontaneous bacterial peritonitis [4]: 0
SAE: Viral infection [4]: 0
AE: Anaemia [5]: 2 (17%)
AE: Ascites [5]: 0
AE: Decreased appetite [5]: 0
AE: Diarrhea [5]: 1 (8%)
AE: Dyspepsia [5]: 0
AE: Erythema [5]: 0
AE: Headache [5]: 0
AE: Hepatic function abnormal [5]: 0
AE: Hypertension [5]: 1 (8%)
AE: Hyperuricaemia [5]: 1 (8%)
AE: Insomnia [5]: 0
AE: Muscle spasms [5]: 0
AE: Nasopharyngitis [5]: 0
AE: Nausea [5]: 0
AE: Pruritus [5]: 0
AE: Puncture site pain [5]: 0
AE: Pyrexia [5]: 0
AE: Spontaneous bacterial peritonitis [5]: 1 (8%)
AE: Viral infection [5]: 0
AE: Vomiting [5]: 0
Laboratory abnormality: Alanine aminotransferase increased [5]: 1 (8%)
Laboratory abnormality: Aspartate aminotransferase increased [5]: 0
Laboratory abnormality: Blood creatine phosphokinase increased [5]: 0
Laboratory abnormality: Blood creatinine increased [5]: 0
Laboratory abnormality: C-reactive protein increased [5]: 0
SAE: Anaemia [5]: 1 (8%)
SAE: Hepatic function abnormal [5]: 0
SAE: Spontaneous bacterial peritonitis [5]: 1 (8%)
SAE: Viral infection [5]: 0
AE liver dysfunction, patients (all patients, 4/27): 15%
AE vomiting, patients (all patients, 4/27): 15%
AE loss of appetite, patients (all patients, 6/27): 22%
AE nausea, patients (all patients, 6/27): 22%
AE diarrhoea, patients (all patients, 7/27): 26%
SAEs related to PRI-724 (observed in the 380 mg/m^2/4 h cohort (liver dysfunction: grade 3)): One of the four SAEs was possibly related to the PRI-724
